The target in assay [1] is T1, bcNOS (Bacillus cereus, UniProt Q814I7).
T1 construct: gene BC_5444; full length, 356 residues, 43 kDa, homodimer; N-terminal His6 tag (pET28a, NdeI/EcoRI), E. coli BL21(DE3) pLysS; heme protein
T1 sequence (Q814I7 1-356): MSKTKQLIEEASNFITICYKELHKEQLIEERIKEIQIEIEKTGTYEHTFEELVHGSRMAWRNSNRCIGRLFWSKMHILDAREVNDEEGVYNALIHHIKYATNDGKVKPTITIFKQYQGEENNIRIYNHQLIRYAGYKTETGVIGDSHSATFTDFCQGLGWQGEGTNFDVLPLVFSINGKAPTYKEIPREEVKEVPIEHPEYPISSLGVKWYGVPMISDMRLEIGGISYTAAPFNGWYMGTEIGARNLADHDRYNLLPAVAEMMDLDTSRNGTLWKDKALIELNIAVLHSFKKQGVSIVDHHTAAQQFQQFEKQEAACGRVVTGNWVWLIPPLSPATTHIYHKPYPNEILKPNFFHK
Put plainly: H2O2-dependent NOHA oxidation to nitrite, plate reader. In kind it is biochemical. To be noted: H2O2, 25 °C, activator.

Assay [2] addresses T1, bcNOS. Put plainly: difference spectroscopy, double-reciprocal analysis. To be noted: distal sixth ligand of ferric heme. In kind it is binding.

With `Nc1nc2c(c(=O)[nH]1)N[C@@H](CNc1ccc(C(=O)N[C@@H](CCC(=O)O)C(=O)O)cc1)CN2` [THF], at bcNOS [1], the “H2O2-dependent NOHA oxidation to nitrite, plate reader” value is “in the presence of NOHA and THF the activity doubled”.
The term Kd denotes the concentration at which binding is half-saturated. Low values mean tighter binding, high ones weaker binding. Compound `c1c[nH]cn1` [imidazole] displayed a Kd on bcNOS [2] of 181 ± 13 µM.
